One assay deals with IIIB-WT. Briefly: Antiviral activity in MT4 cells, HIV-1 p24 core antigen quantitation. The assay is classed as cell-based. Conditions: Human immunodeficiency virus 1, IIIB, 96 h, infection 0.001-0.005 TCID50 per cell, p24 antigen at four days post-infection, concentration inhibiting 90% of p24 production. Here is the method:
(§1) Assessment of the antiviral activities of the Compounds 1 and 290 versus the panel of viruses used in these studies was carried out in MT4 cells. Cells were batch infected with the appropriate virus stock at a multiplicity of infection of 0.001-0.005 TCID50 per cell for 2 hours at 37° C. The cells were washed, resuspended in RPMI/FBS and plated in 24 well dishes at a final concentration of 1.5×10^5 cells/ml to which were added 2× drug treatments prepared in RPMI/FBS. All treatment concentrations were tested in duplicate. The final DMSO concentration for all treatments or vehicle control cultures was 0.1%. At four days post-infection culture fluid samples were collected for HIV-1 p24 core antigen quantitation to determine antiviral effects. Linear regression analysis was used to calculate the drug concentration necessary to inhibit 90% (inhibitory concentration 90, IC90) of non-drug treated p24 antigen production.

A further assay concerns MF-delavirdine (P236L). Described as above. Conditions: Human immunodeficiency virus 1, MT4, 96 h, read-out: MF-delavirdine (P236L) IC90 (μM). The assay is classed as cell-based. On the procedure: as §1

These results are taken from US6124306A, “Thioalkyl alpha substituted pyrimidine compounds” (Pharmacia & Upjohn Company, priority 1998, dated 2000).

Usually IC90 stands for the point of the concentration-response curve where the effect stands at 90%. `CSc1cc(N)nc(S[C@@H](C)c2cc3c(C)coc3cn2)n1` [Compound #290, (S)-(-)-4-Amino-6-methylthio-2-(1-(3-methylfuro[2,3-c]pyridine-5-yl)ethyl)thio-pyrimidine]: the IC90 with IIIB-WT worked out at 4 nM; with MF-delavirdine (P236L), 0.02 µM.
The like results for `CSc1cc(N)nc(S[C@@H](C)c2cc3ccoc3cn2)n1` [Compound #1] were, in that order, 8 nM and 0.02 µM.
